Data reported in ChEMBL document CHEMBL1201862, “PubChem BioAssay data set” (2004).
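Assay format: 96-well plates, 48-hour exposure. Abbreviation: GI50, concentration required for 50% inhibition of growth.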 Active and inactive are the calls of the source. Cut-off read from the data, not from the text of the source: active = GI50 up to about 1.1 µM and inactive = higher.

Legend:
Test in all cases: NCI anticancer screen, dose series, 48 h
BT-549 = test system: BT-549
CAKI-1 = test system: CAKI-1
HCT-116 = test system: HCT-116
HOP-62 = test system: HOP-62
IGROV-1 = test system: IGROV-1
KM12 = test system: KM12
MDA-N = test system: MDA-N
MOLT-4 = test system: MOLT-4
Malme-3M = test system: Malme-3M
NCI-H23 = test system: NCI-H23
OVCAR-8 = test system: OVCAR-8
PC-3 = test system: PC-3
SF-268 = test system: SF-268
SK-MEL-2 = test system: SK-MEL-2
SK-MEL-5 = test system: SK-MEL-5
SN12C = test system: SN12C
T47D = test system: T47D
TK-10 = test system: TK-10
UACC-257 = test system: UACC-257
UACC-62 = test system: UACC-62

SMILES | GI50 (BT-549) | GI50 (CAKI-1) | GI50 (HCT-116) | GI50 (HOP-62) | GI50 (IGROV-1) | GI50 (KM12) | GI50 (MDA-N) | GI50 (MOLT-4) | GI50 (Malme-3M) | GI50 (NCI-H23) | GI50 (OVCAR-8) | GI50 (PC-3) | GI50 (SF-268) | GI50 (SK-MEL-2) | GI50 (SK-MEL-5) | GI50 (SN12C) | GI50 (T47D) | GI50 (TK-10) | GI50 (UACC-257) | GI50 (UACC-62)
Cn1cc2c3ccccc3nc-2c2ccccc21 [ISOCRYPTOLEPINE] | 3.26 µM (inactive) | 2.32 µM (inactive) | 1 µM (active) | 1.59 µM (inactive) | 1.63 µM (inactive) | 2.08 µM (inactive) | 2.04 µM (inactive) | 0.421 µM (active) | 2.28 µM (inactive) | 1.51 µM (inactive) | 1.6 µM (inactive) | 2.52 µM (inactive) | 2.33 µM (inactive) | 1.91 µM (inactive) | 1.7 µM (inactive) | 1.57 µM (inactive) | 2.07 µM (inactive) | 3.93 µM (inactive) | 2.31 µM (inactive) | 1.6 µM (inactive)
COc1ccccc1NC(=O)CC(=O)n1nc(C)c(/N=N/c2ccccc2Cl)c1C | > 81.7 µM (inactive) | > 100 µM (inactive) | > 100 µM (inactive) | 58.3 µM (inactive) | > 100 µM (inactive) | > 100 µM (inactive) | > 31.6 µM (inactive) | 80.2 µM (inactive) | > 100 µM (inactive) | > 37.2 µM (inactive) | > 100 µM (inactive) | > 100 µM (inactive) | > 76 µM (inactive) | > 100 µM (inactive) | > 100 µM (inactive) | > 100 µM (inactive) | > 100 µM (inactive) | > 100 µM (inactive) | > 91.4 µM (inactive) | > 100 µM (inactive)
Oc1c(C2=NNC(c3cccs3)C2)ccc2ccccc12 (stereo not given) | 32.5 µM (inactive) | 40.6 µM (inactive) | 16.4 µM (inactive) | 26.9 µM (inactive) | 14.5 µM (inactive) | 12 µM (inactive) | 16.5 µM (inactive) | 10.1 µM (inactive) | 18.8 µM (inactive) | 28.5 µM (inactive) | 27.5 µM (inactive) | 27 µM (inactive) | 10.9 µM (inactive) | 40.5 µM (inactive) | 23.2 µM (inactive) | 19.4 µM (inactive) | 4.42 µM (inactive) | 28.1 µM (inactive) | 30.1 µM (inactive) | 15.6 µM (inactive)
CC(/C=C/C=C\C=C\C=C(/C)C(=O)NC(C)CO)=C\C(C)C(O)/C(C)=C/C(C)CCc1ccccc1 (stereo not given) | 15.2 µM (inactive) | 14.2 µM (inactive) | 0.127 µM (active) | 12.4 µM (inactive) | 11.1 µM (inactive) | 2.32 µM (inactive) | 12.2 µM (inactive) | 7.46 µM (inactive) | 6.64 µM (inactive) | < 0.01 µM (active) | 6.82 µM (inactive) | 7.94 µM (inactive) | 13.5 µM (inactive) | 13.2 µM (inactive) | 0.198 µM (active) | 12.8 µM (inactive) | 3.61 µM (inactive) | 14 µM (inactive) | 0.0359 µM (active) | 8.61 µM (inactive)
O=C1/C(=C/c2cccnc2)SC(=S)N1Cc1ccco1 | 27.2 µM (inactive) | 9.59 µM (inactive) | 3.06 µM (inactive) | 5.77 µM (inactive) | 6.68 µM (inactive) | 3.13 µM (inactive) | 2.33 µM (inactive) | 3.08 µM (inactive) | 6.73 µM (inactive) | 4.72 µM (inactive) | 4.7 µM (inactive) | 3.87 µM (inactive) | 5.94 µM (inactive) | 8.87 µM (inactive) | 13.4 µM (inactive) | 4.47 µM (inactive) | 11.7 µM (inactive) | 2.34 µM (inactive) | 4.92 µM (inactive) | 8.97 µM (inactive)
